The text below walks through data of ChEMBL document CHEMBL1156751, “Design, synthesis, and biological activity of bicyclic radester analogues as Hsp90 inhibitors” (Bioorg Med Chem Lett, 2009).

In assay [1] the test system is MCF7. Kind of assay: Antiproliferative activity against human MCF7 cells. In kind it is functional, cell-based.
The next assay concerns SK-BR-3. Put plainly: Antiproliferative activity against human SK-BR-3 cells. In kind it is functional, cell-based.
Assay [2] concerns MCF7. Put plainly: Selectivity ratio of IC50 for human SKBr3 cells to IC50 for human MCF7 cells. In kind it is functional.
Assay [3] in a line: Inhibition of Hsp90 N-terminal assessed as AKt degradation by Western blotting.
The nature of assay [4]: Inhibition of Hsp90 N-terminal assessed as c-RAF degradation by Western blotting.
The nature of assay [5]: Inhibition of Hsp90 N-terminal assessed as Her2 degradation by Western blotting.
Assay [6] in a line: Inhibition of Hsp90 N-terminal assessed as increase in Hsp70 level.

For the molecule `COC1=C2C[C@@H](C)C[C@H](OC)[C@H](O)[C@@H](C)/C=C(\C)[C@H](OC(N)=O)[C@@H](OC)/C=C\C=C(/C)C(=O)NC(=CC1=O)C2=O` [GELDANAMYCIN], the half-maximal inhibitory concentration (IC50) in the assay with MCF7 [1] stood at 0.0161 µM; in the assay on SK-BR-3, 0.0158 µM.

For `COC1=C(CCC2Cc3c(Cl)c(O)cc(O)c3C2=O)C(=O)C(NC=O)=CC1=O` (stereo not drawn), the results for the half-inhibitory concentration (IC50) with MCF7 [1] and in the assay on SK-BR-3 were 15.1 µM and 47.3 µM, respectively. The “Ratio IC50” value in the assay on MCF7 [2] was 3.

Regarding `COC1=C(CC(C)OC(=O)c2cc(Cl)c(O)cc2O)C(=O)C(NC=O)=CC1=O` (stereo not drawn) [RADESTER], in the assay with MCF7 [1], the IC50 worked out at 13.9 µM.

Turning to `C[C@@H]1C[C@H]2O[C@@H]2/C=C\C=C\C(=O)Cc2c(Cl)c(O)cc(O)c2C(=O)O1` [RADICICOL], the IC50 in the assay on MCF7 [1] was found to be 0.0477 µM; in the assay on SK-BR-3 it was 0.0375 µM.

As to `COC1=C(CCC2CCc3c(Cl)c(O)cc(O)c3C2=O)C(=O)C(NC=O)=CC1=O` (stereo not drawn), the IC50 came out at 11.4 µM with MCF7 [1] and 12.8 µM with SK-BR-3.

`COc1c(O)cc(NC=O)c(O)c1CCC1CCc2c(Cl)c(O)cc(O)c2C1=O` (stereo not drawn): the IC50 came out at 9.5 µM in the assay on MCF7 [1] and 10.5 µM in the assay with SK-BR-3. Besides, the Activity result in assay [3], in assay [4], in assay [5] and in assay [6] was “Dose-dependent effect” each time.

As to `COc1c(O)cc(NC=O)c(O)c1CCC1Cc2c(Cl)c(O)cc(O)c2C1=O` (stereo not drawn), the IC50 worked out at 12.9 µM with MCF7 [1] and 42.1 µM in the assay on SK-BR-3. In addition, the Activity result in assay [3], in assay [4], in assay [5] and in assay [6] was “Dose-dependent effect” each time. Also, the “Ratio IC50” value in the assay on MCF7 [2] turned out to be 3.

In the case of `COC1=C(C/C=C2/CCc3c(Cl)c(O)cc(O)c3C2=O)C(=O)C(NC=O)=CC1=O`, the half-inhibitory concentration (IC50) with MCF7 [1] worked out at 11.8 µM; with SK-BR-3 it was 12.5 µM.

For the molecule `COC1=C(C/C=C2/Cc3c(Cl)c(O)cc(O)c3C2=O)C(=O)C(NC=O)=CC1=O`, the IC50 in the assay on MCF7 [1] was found to be 15.2 µM; in the assay on SK-BR-3, 40.8 µM. In addition, the “Ratio IC50” value in the assay with MCF7 [2] worked out at 3.
